# Settings: buffer; pH 7.4; 200.0 µM
row,Structure (SMILES),solubility kinetic [µg/mL]
1,Cn1c(=O)c2c(ncn2CC(=O)Nc2cc(S(=O)(=O)N3CCCCC3)ccc2Cl)n(C)c1=O,10.5
2,CCC(=O)Nc1ccc(OCC2CCCO2)cc1 (stereo not given),35.6
3,N/C(Cc1nc(-c2ccc(Cl)cc2)cs1)=N/O,32.3
4,O=C(COc1ccc([N+](=O)[O-])cc1)NCCc1nc2ccccc2[nH]1,8.5
5,N#CCCSc1ccccc1NC(=O)c1cc(=O)c2ccccc2o1,2.2
6,CCOC(=O)Cc1csc(NC(=O)CC(C)(C)CC(=O)O)n1,> 49.3
7,CC1CC(C)CN(C(=O)CNS(=O)(=O)c2cccs2)C1 (stereo not given),17.6
8,COc1ccc(N2CCN(C(=O)c3ccccc3F)CC2)c([N+](=O)[O-])c1,40.7
9,Cc1ccc(CNc2ccccc2C(=O)O)s1,23
10,COc1ccc2nc(N3C(=O)CNC3=S)sc2c1,19.5
11,O=C(CN1C(=O)NC2(CCCCC2)C1=O)Nc1ccc(F)cc1,> 47.9
12,N/C(=N/O)c1cccn1Cc1ccccc1[N+](=O)[O-],> 39
13,CC1CCCCN1S(=O)(=O)c1ccc([N+](=O)[O-])cc1 (stereo not given),22.5
14,Cc1ccc2cc(C)c(N3CCN(c4ccc(F)cc4)CC3)nc2c1,< 0.2
15,CC(=O)N[C@H](Cc1c[nH]c2ccccc12)C(=O)O,> 36.9
16,Cc1cc(=O)oc2cc(OCC(=O)Nc3ccccc3C(=O)O)ccc12,52.9
17,CC(=O)Nc1sc(C)c(C)c1C(=O)OCC(=O)Nc1ccc(S(N)(=O)=O)cc1,8.4
18,Cc1cccc(C(=O)Nc2cccc3cccnc23)c1,2.6
19,COc1ccc(N/C=C2\CCc3ccccc3C2=O)cc1,2
20,c1ccc2sc(C3CCNCC3)nc2c1,> 32.7
21,CNS(=O)(=O)c1cc(N)ccc1C,26.2
22,O=C(c1cc2cc([N+](=O)[O-])ccc2oc1=O)N1CCN(C2CCCCC2)CC1,> 57.8
23,CC1=C(C)CC(C(=O)NCc2c(F)cccc2Cl)C(C(=O)O)C1 (stereo not given),> 51
24,O=S(=O)(Cc1noc(-c2ccc(Cl)cc2)n1)Cc1ccco1,3

row,Structure (SMILES),solubility kinetic [µg/mL]
1,CCOC(=O)c1sc(S(C)(=O)=O)c2c1CC(C)(C)C/C2=N/O,> 51.8
2,CCCCn1c(=S)[nH]c2cc(S(=O)(=O)N3CCOCC3)ccc21,> 53.3
3,Cc1ccc(OCC(O)CN2CCCC2)cc1 (stereo not given),> 35.3
4,COc1cc(C2=NC(CO)(CO)CO2)cc(OC)c1OC,> 44.6
5,Nc1ncnc2nc(SCCC(=O)O)[nH]c12,> 35.9
6,Cn1cccc1C(=O)OCC(=O)N1CCc2ccccc21,2.8
7,Cn1c(C(=O)c2ccccc2)nc2ccccc21,24
8,COC(=O)c1cccn(CC(=O)c2ccc(Cl)cc2)c1=O,> 45.9
9,CCCCCCCCNC(CO)(CO)CO,29.5
10,O=C(NCCCn1ccnc1)c1ccc(C(F)(F)F)cc1,> 44.6
11,Cc1cc(-c2ccccc2)oc(=O)c1NC(=O)c1ccccc1,< 0.7
12,Cc1ccccc1N1CCN(Cc2ccc(Br)o2)CC1,4.3
13,CC(=O)Nc1ccc2sc(NC(=O)CN3CCOCC3)nc2c1,> 50.2
14,Cc1ccc(OCC(=O)NCCCNC(=O)c2cccnc2)cc1,> 49.1
15,CCCC(=O)c1c[nH]c(C(=O)NCc2cccnc2)c1,18.1
16,O=C(NC1CCN(c2ncccn2)CC1)c1ccccc1F,39.7
17,CCC(C)N(C)C1CCN(C(=S)Nc2ccc(OC)cc2)CC1 (stereo not given),> 50.3
18,COc1cccc(/C=C(/C(=O)OCC(N)=O)c2ccccc2)c1,> 46.7
19,Cc1cccc(C(=O)Nc2cccnc2Cl)c1,> 37
20,CC(C)[C@H](Nc1ccc(C(F)(F)F)cc1[N+](=O)[O-])C(=O)O.[Cl-],> 51.3
21,Cc1cc(C(=O)N(C)Cc2c(F)cccc2Cl)c2ccccc2n1,42.4
22,Br.Cc1ccnc(Nc2nc(-c3ccccc3)cs2)c1,0.4
23,O=C1CN(C(=O)/C=C/c2ccc(Cl)cc2Cl)CCN1,44.2
24,Cc1c(C(=O)NCc2ccccc2F)oc2ccccc12,1.5

row,Structure (SMILES),solubility kinetic [µg/mL]
1,COc1cc(/C=C/C(=O)OCC(=O)Nc2cccc(F)c2)ccc1O,24.6
2,CCSc1nc2sc3c(c2c(=O)n1-c1ccccc1C)CCN(C)C3,53.7
3,C=CCNC(=S)NC(CC(=O)OC)c1ccc2c(c1)OCO2 (stereo not given),30.3
4,Cc1ccc(-c2noc(COC(=O)c3ccco3)n2)cc1,8.8
5,CCC(=O)Nc1ccc2c(c1)nc(CN1CCCCC1)n2C,> 45.1
6,CCCc1cc(C(=O)Nc2ccc(Cl)cn2)cs1,0.7
7,CC1=C(C)C(C)=C(C#N)C(=C(C#N)C#N)N1,> 31.5
8,O=C1Cc2ccccc2C(c2ccc(Cl)cc2Cl)N1 (stereo not given),3.1
9,CC1Cc2ccccc2N1Cc1cccc(S(=O)(=O)N(C)C)c1 (stereo not given),9.4
10,Cc1[nH]c(=O)[nH]c(=O)c1S(=O)(=O)Nc1cccc(C(F)(F)F)c1,> 52.4
11,O=C(NCC(c1ccc(F)cc1)N1CCOCC1)c1ccc(OCc2ccccc2)cc1 (stereo not given),5.8
12,CCC1CCCCN1CC(=O)Nc1ccc2c(c1)OCCO2 (stereo not given),> 45.7
13,O=c1oc2ccccc2n1Cc1cccc(Cl)c1,0.8
14,COCCn1c(SCc2ccccc2)nc2c1c(=O)[nH]c(=O)n2C,> 52
15,NCC(c1ccccc1Cl)c1c[nH]c2ccccc12 (stereo not given),> 40.6
16,COc1ccc(CN(C)C(=O)c2ccncc2)c(OC)c1,> 42.9
17,CC1CCCCN1C(=O)CSc1nc2ncccc2[nH]1 (stereo not given),> 43.6
18,O=[N+]([O-])c1cccc(S(=O)(=O)/N=C(/Nc2ccccc2)c2ccccc2)c1,1.8
19,CC(C)N(C(=O)Nc1ccc2nsnc2c1)C(C)C,> 41.8
20,Cc1ccc2cc(CCNC(=O)CCCc3ccccc3)c(=O)[nH]c2c1,2.2
21,O=C1NC(=Nc2ccccc2Br)SC1(CO)CO,> 49.7
22,CCCn1c(N)c(C(=O)COC(=O)/C=C/c2ccc(OC(F)F)c(OC)c2)c(=O)[nH]c1=O,9
23,CC1CC(C)(C)NC(=S)N1CCCC(=O)Nc1ccccc1F (stereo not given),> 50.6
24,N#Cc1sc(NCc2ccccn2)nc1Cl,> 37.6

row,Structure (SMILES),solubility kinetic [µg/mL]
1,CCC(=O)c1c(NC)cc(C)oc1=O,> 29.3
2,O=C(C1CCCC1)N1CCCC(Nc2ccc(F)cc2)C1 (stereo not given),> 43.6
3,Nc1[nH]c(=O)nc(Nc2ccccc2)c1N=O,> 34.7
4,CSc1ccc(S(=O)(=O)N2CCC(C(=O)NCc3ccccn3)CC2)cc1,49.9
5,O=C(COC(=O)c1cccc(O)c1)Nc1ccc(OC(F)F)cc1,46.2
6,CCOC(=O)c1cnc(SCC(=O)OC)nc1N,> 40.7
7,CC1(C)C2CCC1(CS(=O)(=O)Nc1ccccc1)C(=O)C2 (stereo not given),42.8
8,O=C(NCCN1CCOCC1)c1cc(-c2cccc(O)c2)on1,> 47.6
9,O=C(CN1C(=O)c2ccccc2S1(=O)=O)c1ccccc1F,17.8
10,CC(C)(C)C(=O)Nc1cc2c3c(c1)CC(=O)N3CCC2,35.9
11,C=CCOc1nc2c(c(=O)n(C)c(=O)n2C)n1Cc1ccccc1,8.2
12,COc1ccc(CCNC(=O)C(C)OC(=O)c2cccs2)cc1OC (stereo not given),49
13,C#CCN(C)CCCOc1ccc(Cl)cc1Cl.Cl,8.7
14,O=C(Nc1ccncc1)Nc1cccc(C(F)(F)F)c1,5.4
15,O=C1CC(N2CCc3ccccc32)C(=O)N1c1ccc(F)cc1 (stereo not given),> 46.5
16,O=C(C1=C(O)C(=O)N(CC2CCCO2)C1c1ccccc1)c1ccco1 (stereo not given),41.8
17,O=C(CNC(=O)c1ccc(F)cc1)Nc1ccccc1C(F)(F)F,16.2
18,COc1cc(CN(C)Cc2cccc3ccccc23)cc([N+](=O)[O-])c1O,33.8
19,CC(CCc1ccccc1)NC(=O)c1ccccc1F (stereo not given),34.4
20,COc1ccc(NC(=O)CCOc2ccccc2F)cc1S(=O)(=O)N1CCCCC1,34.8
21,COc1ccc(Cn2cnc3c4cc(F)ccc4n(C)c3c2=O)cc1,< 0.2
22,CC(C)N(Cc1ccccc1)C(=O)COC(=O)c1c(F)cccc1F,> 52.1
23,Cc1ccc(N2C(=O)C3CCCN3C2=S)cc1Cl (stereo not given),> 42.1
24,O=C(NC(=O)N1CCCCCC1)c1ccccc1,> 36.9

row,Structure (SMILES),solubility kinetic [µg/mL]
1,COc1cccc(/C=C(\CC(=O)O)c2nc3ccccc3s2)c1,41.1
2,Cc1cccc(Cn2cnc3c(sc4nc(C)cc(C)c43)c2=O)c1,< 0.2
3,O=C(COC(=O)/C=C/c1ccccc1)NC(=O)NC1CCCCC1,8.8
4,Cn1c(C(=O)N2CCN(c3ccccn3)CC2)cc2ccccc21,43.8
5,COc1ccccc1C(=O)NCc1ccco1,> 34.7
6,Cc1ccc(CC(=O)NC2CCN(Cc3ccccc3)CC2)cc1,41.7
7,CC(C)(C)OC(=O)N1CCC(CNC(=O)c2ccccc2)CC1,> 47.8
8,O=C(Nc1ccc(Cl)c(Cl)c1)N1CCCCCC1,0.9
9,COc1ccccc1NS(=O)(=O)c1ccc2c(c1)OCCO2,48
10,CCCCc1nnc(NC(=O)COC)s1,> 34.4
11,O=S(=O)(c1cc(Br)c(Cl)s1)N1CCCC1,1
12,NS(=O)(=O)c1ccc(CCNC(=O)c2ccc(-c3ccccc3)cc2)cc1,< 0.4
13,CSc1ncc(Cl)c(C(=O)Nc2ccccc2C)n1,1.3
14,COC(=O)[C@H](CCSC)NC(=O)Nc1cccc(Br)c1,> 54.2
15,COc1ccc(CC2CC(=O)N(c3ccc(C)cc3)C2=O)cc1 (stereo not given),4.4
16,O=[N+]([O-])c1cc(-c2cnc3ccccc3n2)ccc1Cl,< 0.2
17,O=C(Nc1ccc(F)cc1)C1COc2ccccc2O1 (stereo not given),39.8
18,Cc1ccc(C(=O)NCCONC(=O)c2ccc(C)cc2)cc1,45.6
19,Cc1cc(Cl)ccc1NC(=O)/C=N/O,> 31.9
20,O=C1CN(C(=O)COc2ccccc2)c2ccccc2N1,> 42.3
21,O=C(COC(=O)c1cccnc1)NC1CCCc2ccccc21 (stereo not given),39.3
22,CNC(=O)C12CC3CC(C1)CC(c1ccc(C)cc1)(C3)C2,31.8
23,COc1ccc(-c2cc(=O)[nH]c3ccccc23)cc1,4.6
24,CCN(C(=O)Cn1c(=O)oc2ccccc21)c1cccc(C)c1,> 46.6

# — PubChem BioAssay AID1996
